Values after ≈ are worked out from the molar mass of the structure shown.
Each compound was assayed on HT-1080 cells (assay: Lethality of commercially available CIL41/70 structural analogs). Conditions: Homo sapiens, tested once in technical triplicates.
Type: cell-based
Protocol: (§1) 1,000 cells per 36 μl were seeded in each well in 384-well plates. Lethal compounds were dissolved, and a twofold, 12-point dilution series was prepared in DMSO. Compound solutions were further diluted with media at 1:25, and 4 μl per well of the diluted solutions was added to cell cultures immediately after cells were seeded. […] When other cell-death-modulating compounds (100 nM sodium selenite, 1 μM cerivastatin, 100 μg/mL mevalonic acid) were used in cotreatments, they were supplemented to cell culture for 24 h before lethal compounds were added to cell culture, after which cells were further incubated for 24 h at 37° C. under 5% CO2. On the day of the viability measurement, we added 10 μl per well of 50% Alamar Blue diluted in media (Life Technologies) and further incubated the cells at 37° C. for 6 h. Fluorescence intensity (excitation/emission: 530/590) was measured with a Victor 3 plate reader (PerkinElmer), and the normalized viability was calculated as VL=(IL−I0)/(IV−I0), where VL, I0, IV, and IL are the normalized viability and the raw fluorescence intensities from the wells containing media, cells treated with a vehicle (negative control), and cells with the lethal compound (L), respectively. When the effect of a chemical modulator (M) on L was calculated, we instead used the equation VL|M=(IM,L−I0)/(IM,V−I0), where VL|M, IM,L and IM,V are the normalized viability, and fluorescence intensity from cells treated with […], respectively. The viability was typically measured in biological triplicate unless otherwise specified. A representative dose-response curve, the mean and standard error of normalized viability from one replicate were plotted. HT-1080 viability after modulator treatments corresponding to FIG. 3C and FIGS. 5E-5F is available in FIGS. 19A-19C.
Their lethality was tested once in HT-1080 cells in technical triplicates.

SMILES	EC50 [µg/mL]
CC(C)(Oc1ccc(Cl)cc1)C(=O)O/N=C(\N)Cc1ccc(Cl)cc1Cl [CB119]	> 20
Cc1cccc(OCC(=O)O/N=C(\N)Cc2ccc(Cl)cc2Cl)c1C [CB120]	> 20
Cc1cc(C)c(C)c(OCC(=O)O/N=C(\N)Cc2cccc3ccccc23)c1 [CB121]	> 20
COc1ccccc1C/C(N)=N/OC(=O)CC(c1ccccc1)c1ccccc1 [CB122]	0.98 (≈ 2.52 µM)
COc1ccccc1C/C(N)=N/OC(=O)COc1cccc(C)c1C [CB123]	> 20
COc1ccc(CC(=O)O/N=C(\N)Cc2ccc(OC)c(OC)c2)cc1 [CB124]	> 20
Cc1cc(Cl)ccc1OCC(=O)O/N=C(\N)Cc1ccc([N+](=O)[O-])cc1 [CB125]	> 20
COc1ccccc1C/C(N)=N/OC(=O)COc1cc(C)cc(C)c1C [CB126]	9.3 (≈ 26.1 µM)
N/C(Cc1ccc(Cl)cc1Cl)=N\OC(=O)Cc1ccccc1 [CB127]	> 20
N/C(Cc1ccc(Cl)cc1Cl)=N\OC(=O)CC1CCCCC1 [CB128]	> 20
CCc1ccc(OCC(=O)O/N=C(\N)Cc2ccc([N+](=O)[O-])cc2)c(Br)c1 [CB129]	> 20
CC(C)c1ccc(OCC(=O)O/N=C(\N)Cc2ccc([N+](=O)[O-])cc2)c(Br)c1 [CB130]	> 20
N/C(Cc1cccc2ccccc12)=N\OC(=O)CSc1ccccc1 [CB131]	> 20
Cc1ccc(CC(=O)O/N=C(\N)Cc2cccc3ccccc23)cc1 [CB132]	> 20
N/C(Cc1ccc(Cl)cc1Cl)=N\OC(=O)CSc1ccccc1 [CB133]	> 20
CC(Oc1cccc(Cl)c1)C(=O)O/N=C(\N)Cc1cccc2ccccc12 (stereo not shown) [CB134]	> 20
N/C(Cc1ccc([N+](=O)[O-])cc1)=N\OC(=O)CCCOc1ccccc1 [CB135]	> 20
CCC(Oc1ccccc1)C(=O)O/N=C(\N)Cc1ccc([N+](=O)[O-])cc1 (stereo not shown) [CB136]	> 20
CC(Oc1cccc(Cl)c1)C(=O)O/N=C(\N)Cc1ccc(Cl)cc1Cl (stereo not shown) [CB137]	> 20
N/C(Cc1ccc(Cl)cc1Cl)=N\OC(=O)CCCOc1ccccc1 [CB138]	> 20
Cc1ccc(CC(=O)O/N=C(\N)Cc2ccc([N+](=O)[O-])cc2)cc1 [CB139]	> 20
CCC(Oc1ccccc1)C(=O)O/N=C(\N)Cc1ccc(Cl)cc1Cl (stereo not shown) [CB140]	8.56 (≈ 22.5 µM)
N/C(Cc1ccc([N+](=O)[O-])cc1)=N\OC(=O)CSc1ccccc1 [CB141]	> 20
Cc1ccc(CC(=O)O/N=C(\N)Cc2ccc(Cl)cc2Cl)cc1 [CB142]	> 20
COc1ccc(CC(=O)O/N=C(\N)Cc2ccc(Cl)c(Cl)c2)cc1OC [CB143]	> 20
N/C(Cc1ccc([N+](=O)[O-])cc1)=N\OC(=O)COc1ccc(Cl)cc1Br [CB144]	> 20

SMILES	EC50 [µg/mL]
CC(=O)O/N=C(N)\C(=N/Nc1ccccc1)[N+](=O)[O-] [CB145]	> 20
CC(=O)O/N=C(/N)Cn1nc(C)c([N+](=O)[O-])c1C [CB146]	> 20
Cc1nn(C/C(N)=N/OC(=O)C23CC4CC(CC(C4)C2)C3)c(C)c1[N+](=O)[O-] [CB147]	4.88 (≈ 13 µM)
CCC(=O)O/N=C(\N)Cn1nc(C)c([N+](=O)[O-])c1C [CB148]	> 20
Cc1ccc(Cl)cc1N1CCN(C/C(N)=N/OC(=O)CCC(=O)NC2CCCCC2)CC1 [CD1]	> 20
COc1ccc(/C=C(\C#N)C(=O)O/N=C2\CCCCCN2)cc1 [EN1]	> 20
COc1ccc(/C=C/C(=O)O/N=C2\CCCCCN2)cc1OC [EN2]	10.5 (≈ 33 µM)
O=C(O/N=C1\CCCCCN1)C(Cl)Cl [EN3]	> 20
CC(Cl)(Cl)C(=O)O/N=C1\CCCCCN1 [EN4]	> 20
Cc1ccccc1NC(=O)C/C(N)=N/OC(=O)C1CCCN1C(=O)c1ccco1 (stereo not shown) [EN5]	> 20
N/C(=N\OC(=O)C1CCCN1C(=O)c1cccs1)C(c1ccccc1)c1ccccc1 (stereo not shown) [EN6]	> 20
N/C(COc1ccccc1)=N\OC(=O)C1CCCN1C(=O)c1ccco1 (stereo not shown) [EN7]	> 20
N/C(=N\OC(=O)Cc1ccccc1F)C12CC3CC(CC(C3)C1)C2 [EN8]	> 20
N/C(CC(=O)NC1CCCCC1)=N\OC(=O)C1CCCN1C(=O)c1cccs1 (stereo not shown) [EN9]	> 20
Cc1cccc(NC(=O)C/C(N)=N/OC(=O)C2CCCN2C(=O)c2ccco2)c1C (stereo not shown) [EN10]	> 20
Cc1cc(C)cc(C(=O)NCC(=O)O/N=C(\N)CC(=O)Nc2ccc(Cl)cc2)c1 [EN11]	> 20
NC(/C=C/c1cc(C(F)(F)F)cc(C(F)(F)F)c1)=N\OC(=O)/C=C/c1ccccc1 [MB1]	> 20
CC(=O)O/N=C(\N)Cc1csc2ccc(Cl)cc12 [MB5]	> 20
CC(C)(C)C(=O)O/N=C(\N)Cc1ccc(-c2csnn2)cc1 [MB6]	6.48 (≈ 20.4 µM)
N/C(Cc1ccc(-c2csnn2)cc1)=N\OC(=O)C1CC1 [MB7]	> 20
CC(=O)O/N=C(\N)Cc1ccc(-c2csnn2)cc1 [MB8]	> 20
CC(C)(C)CC(=O)O/N=C(\N)C1(c2ccc(Cl)cc2Cl)CC1 [MB9]	> 20
CC(=O)O/N=C(\N)COc1ccc(-c2nnco2)cc1 [MB10]	> 20
CC(C)(C)C(=O)O/N=C(\N)COc1ccc(Cl)cc1Cl [MB11]	> 20
CCC(=O)O/N=C(\N)COc1ccc(Cl)cc1Cl [MB12]	> 20
CC(C)(C)C(=O)O/N=C(\N)Cc1cccc2ccccc12 [MB13]	> 20

SMILES	EC50 [µg/mL]
CC(C)(C)C(=O)O/N=C(\N)COc1ccc(C(C)(C)C)cc1 [MB14]	2.6 (≈ 8.49 µM)
CC(C)(C)C(=O)O/N=C(\N)CS(=O)(=O)c1ccc(Cl)cc1 [MB15]	> 20
N/C(COc1cccc(Cl)c1)=N\OC(=O)CCn1cc(C(F)(F)F)ccc1=O [MB16]	> 20
Cc1ccc(OC/C(N)=N/OC(=O)CCn2cc(C(F)(F)F)ccc2=O)cc1 [MB17]	> 20
N/C(Cc1ccc(Cl)cc1)=N\OC(=O)C(c1ccccc1)c1ccccc1 [VM1]	2 (≈ 5.28 µM)
N/C(Cc1ccc(Cl)cc1Cl)=N\OC(=O)Cc1ccc(Cl)cc1 [VM2]	> 20
N/C(Cc1ccc(Cl)cc1Cl)=N\OC(=O)/C=C/c1ccccc1Cl [VM3]	8.51 (≈ 22.2 µM)
N/C(Cc1cccc2ccccc12)=N\OC(=O)CCc1ccccc1 [VM4]	> 20
N/C(Cc1ccc([N+](=O)[O-])cc1)=N\OC(=O)CCc1ccccc1 [VM5]	> 20
Cc1nn(C/C(N)=N/OC(=O)C2CCCCC2)c(C)c1Br [ZE1]	> 20
Cc1nn(C/C(N)=N/OC(=O)CC23CC4CC(CC(C4)C2)C3)c(C)c1Br [ZE2]	15.6 (≈ 36.9 µM)
COc1ccc(CC(=O)O/N=C(\N)Cn2nc(C(F)(F)F)cc2C)cc1 [ZE3]	> 20
Cc1nn(C/C(N)=N/OC(=O)C(C)C)c(C)c1[N+](=O)[O-] [ZE4]	> 20
COc1ccc(CC(=O)O/N=C(/N)Cn2nc(C)c([N+](=O)[O-])c2C)cc1 [ZE5]	> 20
CCC(=O)O/N=C(/N)Cn1nc(C(F)(F)F)cc1C [ZE6]	> 20
COc1ccc(CC(=O)O/N=C(/N)Cn2nc(C)c(Br)c2C)cc1 [ZE7]	> 20
Cc1cc(C(F)(F)F)nn1C/C(N)=N/OC(=O)CC12CC3CC(CC(C3)C1)C2 [ZE8]	> 20
Cc1nn(C/C(N)=N/OC(=O)Cn2nc(C(F)(F)F)cc2C2CC2)c(C)c1[N+](=O)[O-] [ZE9]	> 20
Cc1cc(C(F)(F)F)nn1C/C(N)=N/OC(=O)CC1CC2CCC1C2 (stereo not shown) [ZE10]	> 20
N/C(Cn1c(C(F)(F)F)nc2ccccc21)=N\OC(=O)CC1CC2CCC1C2 (stereo not shown) [ZE11]	> 20
CC1=C(Br)C(C)N(C/C(N)=N/OC(=O)CC2CC3CCC2C3)N1 (stereo not shown) [ZE12]	> 20
Cc1cccc(OCC(=O)O/N=C(/N)Cn2nc(C)c([N+](=O)[O-])c2C)c1 [ZE13]	> 20
Cc1nn(C/C(N)=N\OC(=O)COc2cc(Cl)ccc2Cl)c(C)c1[N+](=O)[O-] [ZE14]	> 20
Cc1cc(C(F)(F)F)nn1C/C(N)=N/OC(=O)C1CCCCC1 [ZE15]	> 20
N/C(Cc1ccc(Cl)cc1)=N\OC(=O)Cc1ccccc1 [ZE16]	> 20
CC(=O)O/N=C(N)/C(N)=N/OC(C)=O [ZE17]	> 20

Same assay, conditions: tested once in technical triplicates

SMILES	EC50 of CIL41/70 and structural analogs (lethality)
COc1ccc(OCC(N)=NOC(=O)CON=C(C)c2ccc(Cl)cc2)cc1 [MB2]	MB2 (>20 ug/mL)
CC(=NOCC(=O)ON=C(N)COc1cccc(Cl)c1)c1ccc(Cl)cc1 [MB3]	MB3 (>20 ug/mL)
CC(=NOCC(=O)ON=C(N)COc1ccc(Cl)cc1Cl)c1ccc(Cl)cc1 [MB4]	MB4 (>20 ug/mL)

Each compound was assayed on HT-1080 cells (assay: Cell viability assay (Alamar Blue), lethal compounds with or without modulators). Conditions: HT-1080 cells; modulator cotreatment or pretreatment.
Type: cell-based
Protocol: as §1, with “HT-1080 viability after modulator treatments corresponding to FIG. 3C and FIGS. 5E-5F is available in FIGS. 19A-19C.” left out

SMILES	effect on FIN56 lethality
CNc1ccc2oc(C[C@H]3O[C@@]4(CC[C@H]3C)O[C@H]([C@H](C)C(=O)c3ccc[nH]3)[C@H](C)C[C@H]4C)nc2c1C(=O)O [A23187]	enhanced FIN56 lethality

— US10947188B2, “Small molecule ferroptosis inducers” (THE TRUSTEES OF COLUMBIA UNIVERSITY IN THE CITY OF NEW YORK, priority 2016, dated 2021)
